PMC8351955, “Targeting Mycobacterium tuberculosis response to environmental cues for the development of effective antitubercular drugs” (PLoS Biology, 2021)
Like-named read-outs stand apart in the source and are kept apart here.

How the values were obtained:
[1] = tested on: CDC1551(rv1405c′::GFP) reporter Mtb strain; test: microbe, parasite or virus in culture; format: cell-based, Mycobacterium tuberculosis; conditions: Mycobacterium tuberculosis; for activity at 10 µM: read-out: rv1405c'::GFP secondary assay NPA% at 10 µM compound; for activity at 20 µM: read-out: rv1405c'::GFP secondary assay NPA% at 20 µM compound
[2] = tested on: CDC1551(rv2390c′::GFP) reporter Mtb strain, response to high [Cl−]; test: microbe, parasite or virus in culture; format: cell-based, Mycobacterium tuberculosis; conditions: Mycobacterium tuberculosis, 144 h; for activity at 20 µM: read-out: rv2390c'::GFP validation assay NPA% at 20 µM compound
[3] = pH 6.4, […], DMSO positive control = 100%, read-out: Primary screen rv2390c'::GFP NPA%
[4] = 10 µM, pH 6.4, 250 mM NaCl, 6 days, read-out: rv2390c'::GFP validation assay NPA% at 10 µM compound

Structure (SMILES) | activity at 10 µM [1] | activity at 20 µM [1] | activity at 10 µM [2, 3] | activity at 10 µM [2, 4] | activity at 20 µM ([2]; pH 6.4, 250 mM NaCl, 6 days)
COc1ccc2c(c1)OCC(C(=O)C(C#N)c1nc3ccccc3o1)C2 (centres unmarked) [RU-0202553, COC1=CC2=C(CC(CO2)C(=O)C(C#N)C2=NC3=C(O2)C=CC=C3)C=C1] | 136 ± 12.3% | 402 ± 46.5% | 189% | 131 ± 13.6% | 249 ± 22.5%
CC(C)CCOc1ccc(C(=O)Nc2cc(Cl)ccc2C(N)=O)cc1 [RU-0202925, CC(C)CCOC1=CC=C(C=C1)C(=O)NC1=C(C=CC(Cl)=C1)C(N)=O] | 63.2 ± 8.6% | 61.8 ± 14.4% | 46.5% | 57.1 ± 7.4% | 60.8 ± 9.8%
CCOC(=O)c1nnc(NC(=O)c2cc(Cl)cc(Cl)c2)s1 [RU-0203287, CCOC(=O)C1=NN=C(NC(=O)C2=CC(Cl)=CC(Cl)=C2)S1] | 99 ± 5.3% | 111 ± 11.8% | 174% | 118 ± 12.5% | 138 ± 17%
CC(CCc1ccccc1)Nc1ncnc(-n2cccn2)c1N (centres unmarked) [RU-0203332, CC(CCC1=CC=CC=C1)NC1=C(N)C(=NC=N1)N1C=CC=N1] | 117 ± 5.3% | 182 ± 8.5% | 151% | 100 ± 2.9% | 135 ± 16.1%
Cc1nc(NS(=O)(=O)c2ccc(F)c(F)c2)n(-c2ccc(C#N)cc2)n1 [RU-0203361, CC1=NN(C(NS(=O)(=O)C2=CC(F)=C(F)C=C2)=N1)C1=CC=C(C=C1)C#N] | 119 ± 11.5% | 169 ± 13.4% | 152% | 121 ± 1.5% | 160 ± 15.7%
CC(OC(=O)CC(C)(C)C)c1nc2cc(Cl)ccc2n1C (centres unmarked) [RU-0203619, CC(OC(=O)CC(C)(C)C)C1=NC2=C(C=CC(Cl)=C2)N1C] | 75.6 ± 6.2% | 96.6 ± 5.5% | 153% | 95.6 ± 13.8% | 131 ± 11%
COCCOc1ccc(NS(=O)(=O)c2cn(C)c(Cl)n2)cn1 [RU-0203727, COCCOC1=NC=C(NS(=O)(=O)C2=CN(C)C(Cl)=N2)C=C1] | 330 ± 19.1% | 996 ± 23.7% | 277% | 168 ± 16.8% | 309 ± 6.8%
COc1ccc2c(CC(=O)Nc3nc(CN4CCCCC4)cs3)coc2c1 [RU-0204291, COC1=CC2=C(C=C1)C(CC(=O)NC1=NC(CN3CCCCC3)=CS1)=CO2] | 104 ± 2.6% | 135 ± 13.2% | 167% | 99.2 ± 12.7% | 142 ± 13%
CC(=O)N1N=C(c2c(-c3ccccc3)c3ccc(C)cc3[nH]c2=O)CC1c1ccco1 (centres unmarked) [RU-0204568, CC(=O)N1N=C(CC1C1=CC=CO1)C1=C(C2=CC=CC=C2)C2=C(NC1=O)C=C(C)C=C2] | 102 ± 12.9% | 116 ± 27.3% | 162% | 125 ± 9.5% | 198 ± 21%
CCc1nc(C(C#N)C(=O)/C=C/c2ccc(NC(C)=O)cc2)sc1C (centres unmarked) [RU-0204780, CCC1=C(C)SC(=N1)C(C#N)C(=O)\C=C\C1=CC=C(NC(C)=O)C=C1] | 127 ± 5.5% | 206 ± 16% | 158% | 112 ± 8.5% | 140 ± 12.3%
Cc1sc(NS(=O)(=O)c2ccc(F)c(F)c2)c(C(N)=O)c1C [RU-0205217, CC1=C(C)C(C(N)=O)=C(NS(=O)(=O)C2=CC(F)=C(F)C=C2)S1] | 305 ± 31.1% | 741 ± 74% | 163% | 128 ± 4.7% | 217 ± 16.5%
O=C(O)c1cc(-c2ccc(N3CCOCC3)cc2)nn1-c1ccc(F)cc1 [RU-0206470, OC(=O)C1=CC(=NN1C1=CC=C(F)C=C1)C1=CC=C(C=C1)N1CCOCC1] | 104 ± 4.5% | 158 ± 23.6% | 157% | 111 ± 10.3% | 165 ± 15.9%
Cn1ccc(C(=O)Nc2nc(Sc3ccccc3)ns2)cc1=O [RU-0206593, CN1C=CC(=CC1=O)C(=O)NC1=NC(SC2=CC=CC=C2)=NS1] | 42 ± 9.6% | 38.3 ± 17.6% | 42.6% | 39.2 ± 6.9% | 22.7 ± 6.8%
Cn1cccc1C(=O)NS(=O)(=O)c1ccc(C#N)c(Cl)c1 [RU-0207640, CN1C=CC=C1C(=O)NS(=O)(=O)C1=CC(Cl)=C(C=C1)C#N] | 175 ± 20% | 357 ± 29.5% | 177% | 148 ± 12.2% | 203 ± 22.6%
C(=C\c1ccccc1)/Cn1nnc(-c2cccs2)n1 [RU-0207924, C(\C=C\C1=CC=CC=C1)N1N=NC(=N1)C1=CC=CS1] | 97.4 ± 8.8% | 125 ± 16.3% | 152% | 114 ± 1.5% | 137 ± 4%
CCc1nc(C(=O)Nc2nc(C#N)c(C#N)[nH]2)nn1-c1ccccc1Cl [RU-0208082, CCC1=NC(=NN1C1=C(Cl)C=CC=C1)C(=O)NC1=NC(C#N)=C(N1)C#N] | 418 ± 56.2% | 677 ± 106% | 309% | 258 ± 15.1% | 380 ± 38.2%
